The target in data set [1] is SelH (Homo sapiens, UniProt Q8IZQ5, U44C). The data set can be described thus: Surface plasmon resonance (SPR) detection of affinity between compounds and SelH. Type of data set: binding. From the text: A Cys-deficient Escherichia coli expression system was adopted, which is an effective method to prepare selenoprotein found in recent years. Itsbasic principle is as follows: the characteristic that Cys transfer RNA (tRNACys) can bind to Sec was utilized, and a culture medium which is lack of cysteine (Cys) and rich in Selenium cysteine (Sec) was used for culturing a strain, so that Sec was successfully incorporated into newly expressed protein. According to existing literature reports, a human SelH gene sequence was obtained. Selenocysteine of the SelH is in the middle of the sequence and was terminated here during prokaryotic expression, so that the selenocysteine was mutated from a triple codon TGA of the selenocysteine into TGC, which was synthesized by the Sangon Bioengineering (Shanghai) Co., Ltd. In addition, the adopted SPP system was a single protein production system, and a principle of the SPP system was to induce MazF enzyme (mRNA interfering enzyme for cutting RNA on an ACA nucleotide sequence) to cause growth arrest of thalli. The enzyme can specifically recognize and cut the ACA sequence and prevent synthesis of other background proteins in bacteria. Therefore, when mRNA of the desired target protein was encoded, if the mRNA can be designed into a form lacking an ACA base triplet according to an amino acid encoding rule and was induced at 15° C. by using a pCold vector in cells expressing MazF, the mRNA was not enzymatically hydrolyzed, only a protein derived from the mRNA was generated, and there was little synthesis of other cell proteins.
Chain of SelH (Q8IZQ5 with tags, fused parts or gaps U44C): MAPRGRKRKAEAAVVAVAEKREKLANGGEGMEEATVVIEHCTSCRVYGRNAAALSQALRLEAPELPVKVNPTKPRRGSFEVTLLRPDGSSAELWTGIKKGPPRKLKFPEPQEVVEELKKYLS
A pColdI-selH plasmid was transformed into BL21 (DE3) Cys-deficient Escherichia coli, so as to obtain a defective expression bacterium pColdI-selH. Sec was added during culture, making it become selenium-containing protein. The target protein was purified by using Ni^2+ column chelating chromatography, and impure protein was eluted by using an imidazole eluent of different concentrations to finally obtain the target protein. Soluble SelH protein was finally obtained, and SDS-PAGE (sodium dodecyl sulfate polyacrylamide gel electrophoresis) analysis was carried out.
A surface plasmon resonance (SPR) method was adopted to detect the interaction condition of a small molecule and a protein, so that the screening of drugs targeting SelH was carried out.
Purified SelH was diluted into a 50 μg/mL protein solution by using 10 mM sodium acetate with a pH value of 5.5, the purified SelH was fixed onto a CM5 chip by an amino coupling method by using Biacore 8K (GE Healthcard, Sweden), and an RU value was recorded.
An isopentenyl or isovaleryl substituted coumarin compound, or a triterpenoid compound with an isopentenyl-like structure (the compound specifically includes aurapten, protopanaxadiol, iso-imperatorin, decursin, osthol, notoginsenoside R1 and shionon) was dissolved in 100% DMSO to be prepared into solutions containing 5% DMSO of different concentrations (0, 31.25, 62.5, 125, 250 and 500 μM) by using a 1.05×PBS-P^+ buffer solution (GE Healthcare, obtained by diluting 10×PBS-P^+).
A single-cycle kinetics method was adopted, the 1.05×PBS-P^+ buffer solution containing 5% DMSO was used as a Running Buffer, different compounds of different concentrations flowed through the SelH fixed onto the chip, wherein the binding time was 120 s, and the change condition of the RU value was recorded. An equilibrium dissociation constant (KD) was calculated by using software in Biacore 8K so as to evaluate the binding affinity between the protein and the compounds. The SPR detection result of the affinity between compounds and SelH in Embodiment 2 of the present disclosure is as shown in FIG. 1A-G, and the result statistics is as shown in Table 1.
(1) Screening of small molecule drugs by taking SelH as a target A surface plasmon resonance (SPR) method was adopted to detect the interaction condition of a small molecule and a protein, so that the screening of drugs targeting SelH was carried out. […]
(SPR reads the build-up and loss of mass on a sensor chip optically.)

Data set [2] concerns SELH-deficient LN229 cells and RCC cells (786-O and RCC4). The data set can be described thus: CCK8 assay in SELH-deficient (CRISPR/CAS9) cells. The data set is classed as cell-based. The following applies: CCK8, compared to wild-type cells. From the text:
SELH knockout LN229 cell lines and B16 were generated using the CRISPR/Cas9 technique described by Shalem et al., Science 343: 84 (2014). The gDNA for targeting SELH was designed as follows: Oligo 1, 5′-[…]-3′; Oligo 2, 5′-[…]-3′; the gDNA for targeting mouse SELH was designed as follows: Oligo 1, 5′-[…]-3′; Oligo 2, 5′-[…]-3′, and subcloned into Cas9 carrying vector (pX330). The two resultant plasmids and puromycin-expressing vector (pPGK-puro) were co-transfected at a ratio of 1:1:1 into LN229 or B16 cells using Lipofectamine 2000 (Invitrogen). Twenty-four hours later, the transfected cells were subjected to puromycin (Sigma) at 1 μg/mL for 7 days. One week after selection, the surviving clones were expanded, followed by extraction of total protein for standard western blotting analysis.

In data set [3] the test system is human non-small cell lung cancer cells A549.
Description: (§1) Experimental Materials Human non-small cell lung cancer cells A549, mouse breast cancer cells 4T-1 and mouse melanoma B16-BL6 were purchased from American Type Current Collection (ATCC, Rockville, MD, USA). An RPMI-1640 culture solution containing 10% of fetal calf serum and 2% of glutamine was inoculated with the A549, 4T-1 and B16-BL6 cells, and the cells were incubated at 37° C. in a 5% CO2 incubator.
(§2) The compounds were dissolved in DMSO under a sterile condition, and the obtained solutions were diluted to required concentrations by using an RPMI 1640 culture solution, wherein the final concentration of the DMSO was less than 0.5%.
MTT reduction method is used.
(§3) A549, 4T-1 and B16-BL6 were used as adherent cells, adherent tumor cells in a logarithmic phase were selected, digested with pancreatin, and then prepared into a cell suspension of 5×10^4/ml with a culture medium containing 10% of calf serum, a 96-well culture plate was inoculated with the cell suspension, wherein each well contained 100 μl of the cell suspension, and incubation was carried out for 24 h at 37° C. and 5% CO2. Replacing was carried out with a new culture solution containing the samples to be detected of different concentrations in the experimental groups, replacing was carried out with a culture solution containing a same volume of solvent in the control group, three parallel wells were set in each group, and incubation was carried out for 48 hours at 37° C. and 5% CO2. The supernate was discarded, careful washing was carried out with PBS twice, 100 μl of a freshly prepared culture medium containing 0.5 mg/ml of MTT was added into each well, and incubation was continued to be carried out at 37° C. for 4 h. The supernatant was carefully discarded, 150 μl of DMSO was added, uniform mixing was carried out for 10 min by using a micro oscillator, and the optical density value was measured at 492 nm by using a microplate reader.
(§4) Tumor cell growth inhibition ratio (%)=[A492 (negative control)−A492 (dosing group)]/A492 (negative control)×100%
(§5) The median inhibitory concentration (IC50) of the sample is calculated.
For data set [4] the test system is unchanged. Put plainly: MTT in-vitro anti-tumor activity test, A549. The following applies: MTT.
Description: as §1, §2
MTT reduction method is used.
as §3, §4, §5

The term Kd denotes the free concentration of one partner at which half of the binding sites on the other are occupied at equilibrium, for simple one-to-one binding.

For the compound `CO[C@@H]1[C@@H](O[C@@H]2O[C@H](C)[C@@H](O[C@H]3C[C@@](C)(O)[C@@H](OC(=O)CC(C)C)[C@H](C)O3)[C@H](N(C)C)[C@H]2O)[C@@H](CC=O)C[C@@H](C)[C@@H](O[C@H]2CC[C@H](N(C)C)[C@@H](C)O2)/C=C/C=C/C[C@@H](C)OC(=O)C[C@H]1O` [Isovalerylspiramycin I, 4″-isovalerylspiramycin I], the Kd in data set [1] (SPR Biacore 8K, single-cycle kinetics, Table 3, read-out: KD binding of macrolides and cyclic peptides to SelH) came to 2480 nM. Moreover, the “binding activity to the SelH (in words)” value in data set [1] (ranking within the table's compounds) is “strongest”. In addition, in data set [2], the “response of SELH-deficient cells to treatment” value is “SELH-deficient cells were resistant to ISP I treatment”. Further, in data set [3], the “A549 IC50 cytotoxicity” value turned out to be 1.29 µg/mL. Also, the “inhibition effect on A549 cells (in words)” value in data set [4] is given as “significantly inhibited the human lung cancer A549 cells”.

The record behind these values is patent US20240118263A1, “TARGET FOR SCREENING ANTI-TUMOR DRUG, USE THEREOF AND SCREENING METHOD THEREFOR” (SHENYANG FUYANG PHARMACEUTICAL TECHNOLOGY CO., LTD., priority 2019, published 2024).
